Laboratory results published in patent publication US20080113347A1, “Method for the in Vitro Diagnosis and Prognosis of Demyelinating Diseases, and for the Development of Drugs Against Demyelinating Diseases” (priority 2003, published 2008).
d = 2'-deoxy (DNA); m = 2'-O-methyl

Legend:
[1] = test system: dusp6 gene expression; test: Differential analysis of dusp6 gene expression in oligodendrocyte cultures with Rat Genome U34 DNA arrays; assay type: cell-based; design: key to Change: Increases (I); Decreases (D); undergoes No Change (NC); Marginally Increases (MI); Marginally Decreases (MD); key to Detection: Present (P); Absent (A); Marginal (M); conditions: for Ratio (=2^SLR): fold change vs untreated control; for Signal (dusp6, probe set U42627_at): arrays scaled to total intensity 100; for Change: vs control
Text: Microarrays. The microarrays GeneChip Test 3 (Affymetrix, Santa Clara) were used which allow testing the quality of the RNA prior to the expression analysis with GeneChip Rat Genome U34 set (Affymetrix, Santa Clara), representing 3322 complete gene sequences. The dusp6 gene is represented in the microarray by probe set U42627_at of Affymetrix, which are sense oligonucleotides of 25 nucleotides in length designed on the basis of GeneBank U42627 sequence (Table 1).
Samples. The samples studied corresponded to primary oligodendrocyte cultures obtained from the optic nerve of 12-day old rats. To prevent inter-individual variations, each culture corresponded to a 10-animal cell pool. Treatments were made in duplicate with 10 μM AMPA (α-amino-3-hydroxy-5-methyl-4-isoxazolepropionic acid) or 3 μM kainate. The duration of treatments was 2, 10 and 15 minutes, the cells being collected immediately after treatment in the first two cases and 1 hour after the 15-minute treatment. Treatment for 10 and 15 minutes with AMPA and with kainate causes apoptosis, whereas 2-minute treatment was considered sublethal due to scarce treatment duration. After treatments, the cells were collected in TRIzol® Reagent (Life Technologies) and were stored at −80° C. until total RNA extraction.
The analysis was carried out with total RNA from oligodendrocyte cultures. Each sample corresponded to the mixture of total RNAs from two cultures and were called the following: control: untreated cultured oligodendrocytes ampa 2: oligodendrocytes treated for 2 minutes with 10 μM AMPA and collected after treatment ampa 10: oligodendrocytes treated for 10 minutes with 10 μM AMPA collected after treatment ampa 15: oligodendrocytes treated for 15 minutes with 10 μM AMPA and collected 60 minutes later Kainate 2: oligodendrocytes treated for 2 minutes with 3 μM kainate and collected after treatment Kainate 10: oligodendrocytes treated for 10 minutes with 3 μM kainate and collected after treatment Kainate 15: oligodendrocytes treated for 15 minutes with 3 μM kainate and collected 60 minutes later The total RNA of each one of the cultures was obtained by homogenizing the cells in TRIzol® Reagent (Life Technologies) following the supplier's recommendations. The resulting total RNA was cleaned with the RNeasy Mini kit (QIAGEN) (Chomczynski P. et al., Anal. Biochem., 1987, 162: 156; Chomczynski P., Biotechniques, 1993, 15: 532). 2 μg from each total RNA preparation were used as starting material for the synthesis of biotinylated cRNA with the MessageAmp™ aRNA kit (Ambion).
15 μg of each biotinylated cRNA were fragmented at 94° C. for 35 minutes in a buffer solution containing 40 mM Tris-Acetate (pH 8.1), 100 mM KOAc and 30 mM MgOAc. The fragmented cRNA was mixed with hybridization buffer (10 mM MES, 1M NaCl, 20 mM EDTA, 0.01% Tween 20) and was heated at 99° C. for 5 minutes and subsequently at 45° C. for 5 minutes, to then be loaded into the Affymetrix array. The first array in which hybridization was carried out was Affymetrix Test 3. This array allows testing the quality of the RNA prior to expression analysis in the Affymetrix® GeneChip® Rat Genome U34 set (RG-U34).
For hybridization, the arrays were incubated in a rotary oven at 45° C. for 16 hours and with a constant rotation of 60 rpm.
Washing and staining of each array was carried out in the Affymetrix® Fluidics Station. A washing and staining program was used which included:
The arrays were scanned at 560 nm using a confocal microscope using laser emission (Agilent GeneArray Scanner). Analysis of the intensity readings was carried out with Microarray Suite 5.0 software. To compare the arrays, the latter were scaled to a total intensity of 100.
Differential analysis of the dusp6 gene expression in the oligodendrocytes stimulated with regard to the control was carried out from the array comparison data obtained using the Affymetrix software. […]

[2] = test system: oligodendrocytes; conditions: UO126 10 μM
Procedure: DUSP6 is a negative regulator of the MAPK/ERK signaling pathway which promotes cell survival, as documented above in the Background of the Invention section. Because of that, we tested if the pharmacological inhibition of this pathway potentiates oligodendrocyte death triggered by activation of AMPA receptors.
To block the MAPK/ERK pathway, oligodendrocytes were incubated with UO126, a dual MEK1 & 2 inhibitor, for 15 min prior to the excitotoxic stimulus. Subsequently, cells were exposed to AMPA 10 μM+CTZ 100 μM during 15 minutes in the presence or absence of UO126, and cell viability was assessed 24 h later by the MTT method.

[3] = test system: oligodendrocytes treated with AMPA; test: Cell death inhibition in oligodendrocytes treated with AMPA after incubation with antisense oligonucleotides; assay type: cell-based, rat; conditions: ODN transfected with Lipofectin, stimulus 15 minutes, protecting effect assessed after 6 hours
Procedure: To evaluate if dusp6 expression blocking inhibits cell death of oligodendrocytes treated with AMPA, antisense oligonucleotides (ODNs) capable of blocking said gene expression were used. The working model used in this assay is a model based on the cell death of oligodendrocytes, a typical model for study the neurodegenerative phase of said demyelinating diseases.
Oligonucleotide design was carried out based on the secondary structure of the RNA, trying to prevent sequences presenting a high internal hybridization percentage, and with the aid of AO predict (http://www.cgb.ki.se/AOpredict/) computer software. To improve efficacy and capability to degrade RNA and to reduce side effects, last-generation oligonucleotides were designed, presenting two types of modifications; 2′-O-Methyl groups in the 6 first and last bases, and phosphorothiodated groups in the 8 intermediate bases. Furthermore, the oligonucleotides were labeled with Texas Red to be able to identify the cells transfected with said oligonucleotides.
Three antisense ODNs, for the purpose of identifying active sequences, plus a sense ODN, used as a negative control, were designed. To improve penetration thereof, the ODNs were transfected using the Lipofectin kit (Invitrogen).
24 hours after seeding, the oligodendrocytes were treated with a mixture of ODs at different concentrations coupled to the transfection kit liposomes.
After 24 hours, the cells were rinsed and were left another 24 hours before the experiment to ensure total blocking of the protein under study. Subsequently, the excitotoxic stimulus, AMPA 10 μM+CTZ 100 μM, was added during 15 minutes, and the protecting effect of the different ODNs after 6 hours was assessed.

[4] = treated 2 minutes (10 μM AMPA or 3 μM kainate), collected after treatment
[5] = treated 10 minutes (10 μM AMPA or 3 μM kainate), collected after treatment
[6] = treated 15 minutes (10 μM AMPA or 3 μM kainate), collected 60 minutes later
[7] = treatments with kainate (3 μM; 2, 10 and 15 minutes) taken together

C=C(C)[C@H]1CN[C@H](C(=O)O)[C@H]1CC(=O)O [Kainate, kainate]
SLR (vs control) ([1]; Signal Log Ratio (log2), treated 2 minutes (10 μM AMPA or 3 μM kainate), collected after treatment): 0.6
SLR (vs control) ([1]; Signal Log Ratio (log2), treated 10 minutes (10 μM AMPA or 3 μM kainate), collected after treatment): 0.6
SLR (vs control) ([1]; Signal Log Ratio (log2), treated 15 minutes (10 μM AMPA or 3 μM kainate), collected 60 minutes later): 0.9
Ratio (=2^SLR) [1, 4]: 1.5 fold
Ratio (=2^SLR) [1, 5]: 1.5 fold
Ratio (=2^SLR) [1, 6]: 1.9 fold
Detection [1, 4]: P
Signal (dusp6, probe set U42627_at) [1, 4]: 48.4
Detection [1, 5]: P
Signal (dusp6, probe set U42627_at) [1, 5]: 43.5
Detection [1, 6]: P
Signal (dusp6, probe set U42627_at) [1, 6]: 63.7
SLR (vs control) [1, 7]: < 1
dusp6 expression increase with regard to the control [1, 7]: less than two fold
Change [1, 4]: I
Change [1, 5]: I
Change [1, 6]: I

N#CC(=C(/N)Sc1ccccc1N)/C(C#N)=C(/N)Sc1ccccc1N [UO126]
oligodendroglial cell death induced by AMPA 10 μM+CTZ 100 μM in the presence of UO126 ([2]; 15 min prior to and during 15 minutes stimulus, MTT 24 h later, p<0.05, n=3 in triplicate): increased three-fold
oligodendroglial viability under control conditions ([2]; MTT, 24 h later): did not affect oligodendroglial viability

ODN2: antisense ODN against dusp6; 2′-O-Methyl groups in 6 first and last bases, phosphorothiodated 8 intermediate bases, Texas Red labeled (antisense TCAACGTGGCCATCCCGGGC; sugars from the 5' end m6 d8 m6, backbone, methylation of C and T or U not given here; Texas Red label, phosphorothioates in eight intermediate bases)
oligodendroglial death after stimulation with AMPA 10 μM+CTZ 100 μM [3]: significantly inhibited
oligodendroglial death after stimulation with AMPA 10 μM+CTZ 100 μM ([3]; listed as SEQ ID NO:3): inhibit cell death of oligodendrocytes treated with AMPA

ODN3: antisense ODN against dusp6; 2′-O-Methyl groups in 6 first and last bases, phosphorothiodated 8 intermediate bases, Texas Red labeled (antisense CCAAGTGGACTCCCTGCAATC; sugars from the 5' end m6 d9 m6, backbone, methylation of C and T or U not given here; Texas Red label, phosphorothioates in eight intermediate bases)
oligodendroglial death after stimulation with AMPA 10 μM+CTZ 100 μM [3]: significantly inhibited
oligodendroglial death after stimulation with AMPA 10 μM+CTZ 100 μM ([3]; listed as SEQ ID NO:4): inhibit cell death of oligodendrocytes treated with AMPA
